Test results as given in patent US20240173344A1, “USE OF GABAA RECEPTOR AS TARGET IN PREPARATION OR SCREENING OF DRUG FOR LOWERING BLOOD LIPID LEVEL, TREATING OBESITY, AND/OR IMPROVING METABOLISM” (SHANGHAI INSTITUTE OF ENDOCRINE AND METABOLIC DISEASES, priority 2022, published 2024).
Several values for one entry are separate records, joined by “and”; a condition that tells them apart may be missing. Equal entries are not always repeated.

Tests used:
[1] = molecular target: T1, γ2 subunit of the GABAA receptor (Gabrg2) in the DMV (Mus musculus, UniProt P22723+P62812); assay: DMV-specific knockdown of Gabrg2 to block puerarin in obese mouse model: body weight, blood lipid, jejunal TG, c-fos; assay type: in vivo, mice; settings: for Body weight curve change percentage / Jejunal TG level / Blood lipid level: single mice and mean
T1 construct: from tissue; host or cells: brainstem DMV of living obese mice
Protocol: A method for determining TG in a sample was as follows: 20 mg to 30 mg of a sample was first weighed, a 5% NP40-containing lysis buffer was added, and a resulting mixture was homogenated and incubated in a metal bath at 95° C. for 5 min, which was repeated twice. A resulting homogenate was cooled to room temperature and then centrifuged at 15,000 rpm for 2 min to 3 min, and a resulting supernatant was pipetted for determination. A Biovision kit was used to determine TG. 2 μl of the supernatant was added to each well, and after a chromogenic reaction was completed, a value of each well was determined by a microplate reader. TG in the small intestinal tissue was quantified through a standard protein concentration; and a total amount of lipids excreted with the feces was calculated based on a measured value of the feces sample and a total mass of the sample at 24 h.
Similar to the above experiment, the rAAV-DIO-Gabrg2-shRNA (BrainVTA, China) was used to knock down Gabrg2 (a gene encoding the γ2 subunit of the GABAA receptor) in the DMV in an obese mouse model, and the rAAV-DIO-mCherry (BrainVTA, China) was used as a control group.

[2] = molecular target: T2, GABAA receptor in the DMV (Mus musculus, UniProt P22723+P62812); assay: Colocalization staining of puerarin probe with GABAA receptor on brain slices; settings: brain slice tissue, immunofluorescence staining
T2 construct: from tissue; host or cells: brain slice tissue (DMV)

GABAA (α1β3γ2) receptor = molecular target: T3, GABAA (α1β3γ2) receptor (Homo sapiens, UniProt P14867+P18507); assay: Bioelectric signal of 293S cell line with GABA and puerarin co-incubation; assay type: cell-based; settings: 0.5 μM GABA co-incubated with puerarin for 3 min to 5 min
T3 construct: expressed in transfected cells

obese mouse model = assay: Intraperitoneal puerarin for 20 d in high-fat-diet obese mouse model: body weight, blood lipid, jejunal TG, c-fos staining, oil red O staining; assay type: in vivo, C57BL/6J mice; settings: brain slice c-fos immunofluorescence, puerarin i.p. 20 d vs control group
Protocol: The C57BL/6J mice were used as experimental mice in the present disclosure. The experimental mice each were raised in an SPF-level environment at 22° C. to 24° C. with a 12:12 circadian rhythm, and the experimental mice each were subjected to anaesthesia, analgesia, surgery, intraperitoneal injection, and other experimental operations in accordance with the relevant provisions of animal ethics.
In the present disclosure, the mice were fed with a high-fat diet in which a mass percentage of fat was 60% for 12 weeks, and when a body weight reached 35 g or more, animal models of alimentary obesity were successfully constructed. At a formal stage of the experiment (starting on day 0 in FIG. 1A, FIG. 3A, FIG. 6A, and FIG. 7A), the mice were raised in single cages, during which a daily food intake of each mouse model was accurately recorded, the feces was collected before and after drug intervention, and a daily body weight curve was recorded.
A method for determining TG in a sample was as follows: 20 mg to 30 mg of a sample was first weighed, a 5% NP40-containing lysis buffer was added, and a resulting mixture was homogenated and incubated in a metal bath at 95° C. for 5 min, which was repeated twice. […] 2 μl of the supernatant was added to each well, and after a chromogenic reaction was completed, a value of each well was determined by a microplate reader. […]

[3] = molecular target: T4, α1 subunit of the GABAA receptor (Gabra1) in the DMV (Mus musculus, UniProt P22723+P62812); assay: DMV-specific knockdown of Gabra1 to block puerarin in obese mouse model: body weight, blood lipid, jejunal TG, c-fos; assay type: in vivo, mice; settings: for Body weight curve change percentage: single mice and mean
T4 construct: from tissue; host or cells: brainstem DMV of living obese mice

neurons in the DMV = assay: Electrophysiological whole-cell patch-clamp recording of brain slices; assay type: cell-based; settings: during puerarin incubation (concentration: 10 mM), current clamp, brain slices of obese mice
Protocol: Obese mouse models fed with a high-fat feed for 12 weeks were taken and myocardially perfused with an artificial cerebrospinal fluid (ACSF), and 200 μm to 300 μm-thick brainstem tissue slices were prepared by vibration slicing; and brain slices were incubated in oxygen at 35° C. for 1 h and then transferred to a patch-clamp system for whole-cell patch-clamp recording. Recorded neurons were selected according to the cellular morphology in the DMV, and a green-fluorescent dye was added to a pipette solution to label cells.

[4] = Puerarin group (control virus in DMV, puerarin i.p. daily), Day 0 baseline
[5] = Puerarin group (control virus, puerarin i.p. 7 d)
[6] = Puerarin group (control virus, puerarin i.p. 7 d), mean
[7] = Puerarin group vs control group

T1 sequence (P22723 39-474): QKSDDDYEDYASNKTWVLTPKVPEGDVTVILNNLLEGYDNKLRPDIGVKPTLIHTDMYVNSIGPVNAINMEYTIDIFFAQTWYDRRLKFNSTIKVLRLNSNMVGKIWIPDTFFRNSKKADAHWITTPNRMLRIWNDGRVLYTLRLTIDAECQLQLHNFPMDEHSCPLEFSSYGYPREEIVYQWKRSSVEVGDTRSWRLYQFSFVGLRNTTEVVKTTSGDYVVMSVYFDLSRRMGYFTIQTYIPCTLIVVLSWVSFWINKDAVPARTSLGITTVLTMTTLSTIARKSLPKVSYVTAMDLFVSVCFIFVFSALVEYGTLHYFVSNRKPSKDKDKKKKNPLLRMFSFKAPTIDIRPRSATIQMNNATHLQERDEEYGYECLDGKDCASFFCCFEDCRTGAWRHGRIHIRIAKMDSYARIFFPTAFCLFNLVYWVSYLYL
T1 sequence (P62812 28-455): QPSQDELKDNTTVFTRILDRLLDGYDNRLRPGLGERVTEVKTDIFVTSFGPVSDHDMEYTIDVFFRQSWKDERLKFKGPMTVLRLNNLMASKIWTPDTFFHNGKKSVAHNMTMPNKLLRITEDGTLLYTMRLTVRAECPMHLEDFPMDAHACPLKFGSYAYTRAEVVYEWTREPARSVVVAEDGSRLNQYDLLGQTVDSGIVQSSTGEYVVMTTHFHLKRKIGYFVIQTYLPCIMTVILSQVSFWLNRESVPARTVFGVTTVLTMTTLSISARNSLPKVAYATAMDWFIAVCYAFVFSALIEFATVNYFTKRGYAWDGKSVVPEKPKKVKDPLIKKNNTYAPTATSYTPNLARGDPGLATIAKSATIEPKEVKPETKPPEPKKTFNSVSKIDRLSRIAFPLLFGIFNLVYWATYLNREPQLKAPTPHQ
T1 sequence (P63080 26-473 partner): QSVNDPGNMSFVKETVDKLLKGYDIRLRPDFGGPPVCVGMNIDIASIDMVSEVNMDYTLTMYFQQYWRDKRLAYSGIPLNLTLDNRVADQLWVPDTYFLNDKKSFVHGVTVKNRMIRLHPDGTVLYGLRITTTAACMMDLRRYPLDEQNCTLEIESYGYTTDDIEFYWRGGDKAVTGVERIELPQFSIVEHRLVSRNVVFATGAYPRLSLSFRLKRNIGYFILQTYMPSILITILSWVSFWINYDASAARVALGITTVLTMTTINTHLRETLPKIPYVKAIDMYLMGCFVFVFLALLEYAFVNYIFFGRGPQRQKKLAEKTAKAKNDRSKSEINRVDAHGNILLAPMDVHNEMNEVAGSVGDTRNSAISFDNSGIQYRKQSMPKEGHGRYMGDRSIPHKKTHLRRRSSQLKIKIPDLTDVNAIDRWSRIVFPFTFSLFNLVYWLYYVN
T4 sequence (P62812 28-455): as the sequence (P62812 28-455) above
T4 sequence (P63080 26-473 partner): as the sequence (P63080 26-473 partner) above
T4 sequence (P22723 39-474): as the sequence (P22723 39-474) above
T2 sequence (P62812 28-455): as the sequence (P62812 28-455) above
T2 sequence (P63080 26-473 partner): as the sequence (P63080 26-473 partner) above
T2 sequence (P22723 39-474): as the sequence (P22723 39-474) above
T3 sequence (P14867 28-456): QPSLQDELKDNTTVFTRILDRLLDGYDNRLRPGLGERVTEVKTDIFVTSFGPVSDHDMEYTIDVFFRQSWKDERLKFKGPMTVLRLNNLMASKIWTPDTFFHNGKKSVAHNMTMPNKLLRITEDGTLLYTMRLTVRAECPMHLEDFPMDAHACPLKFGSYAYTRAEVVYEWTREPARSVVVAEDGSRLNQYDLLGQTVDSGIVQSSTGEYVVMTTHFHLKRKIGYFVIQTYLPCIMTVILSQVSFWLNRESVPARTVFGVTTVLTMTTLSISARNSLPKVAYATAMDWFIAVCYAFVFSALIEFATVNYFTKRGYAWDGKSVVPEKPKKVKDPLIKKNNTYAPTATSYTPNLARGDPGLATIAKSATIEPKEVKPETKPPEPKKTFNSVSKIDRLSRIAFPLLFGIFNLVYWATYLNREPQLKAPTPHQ
T3 sequence (P28472 26-473 partner): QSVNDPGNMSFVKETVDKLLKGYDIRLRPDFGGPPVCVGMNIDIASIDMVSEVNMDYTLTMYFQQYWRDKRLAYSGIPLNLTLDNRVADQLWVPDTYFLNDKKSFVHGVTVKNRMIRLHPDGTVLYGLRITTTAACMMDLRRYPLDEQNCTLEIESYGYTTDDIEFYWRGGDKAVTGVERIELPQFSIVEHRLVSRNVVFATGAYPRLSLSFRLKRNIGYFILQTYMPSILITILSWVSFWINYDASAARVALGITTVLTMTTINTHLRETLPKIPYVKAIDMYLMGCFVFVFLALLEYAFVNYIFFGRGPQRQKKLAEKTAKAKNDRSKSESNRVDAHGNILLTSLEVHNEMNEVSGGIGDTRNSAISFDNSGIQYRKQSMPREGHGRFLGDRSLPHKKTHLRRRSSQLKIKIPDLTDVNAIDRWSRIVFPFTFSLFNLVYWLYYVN
T3 sequence (P18507 40-475): as the sequence (P22723 39-474) above

O=c1c(-c2ccc(O)cc2)coc2c([C@@H]3O[C@H](CO)[C@@H](O)[C@H](O)[C@H]3O)c(O)ccc12 [Puerarin, puerarin]
Body weight curve change percentage ([1]; Gγ2 blocking group (Gabrg2 shRNA virus in DMV, puerarin i.p. daily), Day 0 baseline): 0.00%
Jejunal TG level ([1]; Gγ2 blocking group (Gabrg2 shRNA virus, puerarin i.p. 7 d)): 1.1912 μmol/mg/protein and 1.5075 μmol/mg/protein and 1.6522 μmol/mg/protein and 1.1566 μmol/mg/protein and 1.0093 μmol/mg/protein
Jejunal TG level ([1]; Gγ2 blocking group (Gabrg2 shRNA virus, puerarin i.p. 7 d), mean): 1.3034 μmol/mg/protein
Body weight curve change percentage ([1]; Gγ2 blocking group (Gabrg2 shRNA virus, puerarin i.p. daily), Day 1): 0.82% and 0.55% and −0.82% and −0.55% and 0.79%
Body weight curve change percentage ([1]; Gγ2 blocking group (Gabrg2 shRNA virus, puerarin i.p. daily), Day 1, mean): 0.16%
Body weight curve change percentage ([1]; Gγ2 blocking group (Gabrg2 shRNA virus, puerarin i.p. daily), Day 2): 1.37% and −0.28% and 0.27% and 0.54% and −0.81%
Body weight curve change percentage ([1]; Gγ2 blocking group (Gabrg2 shRNA virus, puerarin i.p. daily), Day 2, mean): 0.22%
Body weight curve change percentage ([1]; Gγ2 blocking group (Gabrg2 shRNA virus, puerarin i.p. daily), Day 3): 0.55% and −1.13% and 0.54% and 1.08% and 1.57%
Body weight curve change percentage ([1]; Gγ2 blocking group (Gabrg2 shRNA virus, puerarin i.p. daily), Day 3, mean): 0.52%
Body weight curve change percentage ([1]; Gγ2 blocking group (Gabrg2 shRNA virus, puerarin i.p. daily), Day 4): 0.28% and −1.41% and 0.80% and 1.60% and 1.06%
Body weight curve change percentage ([1]; Gγ2 blocking group (Gabrg2 shRNA virus, puerarin i.p. daily), Day 4, mean): 0.47%
Body weight curve change percentage ([1]; Gγ2 blocking group (Gabrg2 shRNA virus, puerarin i.p. daily), Day 5): 0.55% and −0.56% and 2.62% and 3.41% and 0.79%
Body weight curve change percentage ([1]; Gγ2 blocking group (Gabrg2 shRNA virus, puerarin i.p. daily), Day 5, mean): 1.36%
Body weight curve change percentage ([1]; Gγ2 blocking group (Gabrg2 shRNA virus, puerarin i.p. daily), Day 6): 0.55% and −0.56% and 2.62% and 3.41% and 1.83%
Body weight curve change percentage ([1]; Gγ2 blocking group (Gabrg2 shRNA virus, puerarin i.p. daily), Day 6, mean): 1.57%
Body weight curve change percentage ([1]; Gγ2 blocking group (Gabrg2 shRNA virus, puerarin i.p. daily), Day 7): 0.82% and 0.00% and 2.37% and 3.16% and 2.09%
Body weight curve change percentage ([1]; Gγ2 blocking group (Gabrg2 shRNA virus, puerarin i.p. daily), Day 7, mean): 1.69%
c-fos staining signal of neurons in the DMV ([1]; Gγ2 blocking group (tissue-specific knockdown of Gabrg2, puerarin i.p.)): could intervene in the inhibitory effect of puerarin on neurons in the DMV
Body weight curve change percentage [1, 4]: 0.00%
Blood lipid level [1, 5]: 0.6408 mM and 0.7143 mM and 0.8673 mM and 0.7337 mM and 0.7380 mM
Jejunal TG level [1, 5]: 0.9191 μmol/mg/protein and 0.8860 μmol/mg/protein and 0.8466 μmol/mg/protein and 0.9139 μmol/mg/protein and 0.7516 μmol/mg/protein
Blood lipid level [1, 6]: 0.7388 mM
Jejunal TG level [1, 6]: 0.8634 μmol/mg/protein
Body weight curve change percentage ([1]; Puerarin group (control virus, puerarin i.p. daily), Day 1): −1.10% and −1.06% and −0.81% and −0.79% and 0.82%
Body weight curve change percentage ([1]; Puerarin group (control virus, puerarin i.p. daily), Day 1, mean): −0.59%
Body weight curve change percentage ([1]; Puerarin group (control virus, puerarin i.p. daily), Day 2): −0.82% and −1.60% and −0.81% and −1.06% and −1.11%
Body weight curve change percentage ([1]; Puerarin group (control virus, puerarin i.p. daily), Day 2, mean): −1.08%
Body weight curve change percentage ([1]; Puerarin group (control virus, puerarin i.p. daily), Day 3): −2.50% and −0.53% and −2.20% and −1.33% and −1.68%
Body weight curve change percentage ([1]; Puerarin group (control virus, puerarin i.p. daily), Day 3, mean): −1.65%
Body weight curve change percentage ([1]; Puerarin group (control virus, puerarin i.p. daily), Day 4): −3.07% and −2.14% and −2.76% and −1.87% and −0.83%
Body weight curve change percentage ([1]; Puerarin group (control virus, puerarin i.p. daily), Day 5): −4.83% and −2.97% and −1.64% and −5.20%
Body weight curve change percentage ([1]; Puerarin group (control virus, puerarin i.p. daily), Day 5, mean): −3.52%
Body weight curve change percentage ([1]; Puerarin group (control virus, puerarin i.p. daily), Day 6): −5.13% and −4.10% and −3.05% and −5.54% and −3.41%
Body weight curve change percentage ([1]; Puerarin group (control virus, puerarin i.p. daily), Day 6, mean): −4.24%
Body weight curve change percentage ([1]; Puerarin group (control virus, puerarin i.p. daily), Day 7): −6.34% and −4.96% and −3.33% and −5.54% and −3.41%
Body weight curve change percentage ([1]; Puerarin group (control virus, puerarin i.p. daily), Day 7, mean): −4.72%
c-fos staining signal of neurons in the DMV [1, 7]: inhibited by puerarin
Distribution of puerarin probe and colocalization with GABAA receptor staining [2]: enriched in the DMV and showed prominent colocalization with staining of the GABAA receptor
Chloride influx / bioelectric signal change (GABAA (α1β3γ2) receptor): increased chloride ions would enter cells, causing hyperpolarization
Number of c-fos fluorescence signals in the DMV brain region (obese mouse model): smaller than that in the control group
Body weight curve change percentage ([3]; Gα1 blocking group (Gabra1 shRNA virus in DMV, puerarin i.p. daily), Day 0 baseline): 0.00%
Body weight curve change percentage ([3]; Gα1 blocking group (Gabra1 shRNA virus, puerarin i.p. daily), Day 2): 0.70% and 0.68% and 0.80% and 0.69% and 1.06% and 0.91% and 0.82% and 0.83%
c-fos staining of brain slices (DMV) ([3]; Gα1 blocking group (tissue-specific knockdown of Gabra1, puerarin i.p.)): would intervene in the inhibitory effect of puerarin on neurons in the DMV
Body weight curve change percentage [3, 4]: 0.00%
c-fos staining of brain slices (DMV) [3, 7]: less than that of the control group
Action potential discharge frequency of neurons in the DMV (neurons in the DMV): significantly reduced
Membrane potential of neurons in the DMV (neurons in the DMV): slightly lower than the initial baseline
